We go through 6 compounds from patent US4022895A, “Substituted phenylglycylcephalosporins” (SmithKline Corporation, priority 1975, dated 1977).

Assay [1] deals with Proteus morgani 179. Put plainly: In vitro antibacterial activity (MIC). Format: cell-based. Conditions: Proteus morgani 179, in vitro; read-out: MIC. How it is done: (§1) The compounds of this invention have antibacterial activity against Gram-positive and Gram-negative organisms. Minimum inhibitory concentrations (MIC's) ranged from 0.4 to >200 μg/ml in in vitro testing.
Assay [2] concerns Sal. paratyphl ATCC 12176. Put plainly: In vitro antibacterial activity (MIC). It is filed as cell-based. The method, then: as §1
Assay [3] concerns S.aureus SK 23390. Description: In vitro antibacterial activity (MIC). Conditions: Staphylococcus aureus, SK23390; S.aureus SK 23390, in vitro; read-out: MIC. It is filed as cell-based. How it is done: as §1
Assay [4] concerns Entero. aerog. ATCC 13048. Description: In vitro antibacterial activity (MIC). It is filed as cell-based. Conditions: Entero. aerog. ATCC 13048, in vitro; read-out: MIC. The method, then:
as §1

Assay [5] has as its system Strep. faecalis HH 34358. Put plainly: In vitro antibacterial activity (MIC). It is filed as cell-based. To be noted: Enterococcus faecalis, HH34358; Strep. faecalis HH 34358, in vitro. The method, then:
as §1

For assay [6], the system named is S.aureus HH 127. Put plainly: In vitro antibacterial activity (MIC). Format: cell-based. To be noted: Staphylococcus aureus, HH127; S.aureus HH 127, in vitro; read-out: MIC. How it is done:
as §1

Assay [7] has as its system S.aureus Villaluz. Description: In vitro antibacterial activity (MIC). It is filed as cell-based. To be noted: Staphylococcus aureus. How it is done: as §1
The subject of assay [8] is E.coli SK 12140. Description: In vitro antibacterial activity (MIC). Conditions: Escherichia coli, SK12140; E.coli SK 12140, in vitro; read-out: MIC. It is filed as cell-based. How it is done: as §1
For assay [9], the system named is Kleb. pneumo. SK 1200. Put plainly: In vitro antibacterial activity (MIC). It is filed as cell-based. Conditions: Kleb. pneumo. SK 1200, in vitro; read-out: MIC. How it is done: as §1
Assay [10] concerns Kleb. pneumo. SK 4200. Description: In vitro antibacterial activity (MIC). It is filed as cell-based. To be noted: Kleb. pneumo. SK 4200, in vitro; read-out: MIC. How it is done:
as §1

Assay [11] has as its system E. coli HH 33779. Description: In vitro antibacterial activity (MIC). Conditions: Escherichia coli, HH33779; E. coli HH 33779, in vitro; read-out: MIC. It is filed as cell-based. The method, then:
as §1

Assay [12] concerns Shig. paradys HH 112. Description: In vitro antibacterial activity (MIC). It is filed as cell-based. How it is done: as §1
For assay [13], the system named is E.coli 12140. Description: In vivo activity (ED50) against E.coli 12140.
The subject of assay [14] is Klebs.pneumo. 4200. Put plainly: In vivo activity (ED50) against Klebs.pneumo. 4200. Conditions: read-out: ED50.
The mark [15] stands for this setting: Shig. paradys HH 112, in vitro, read-out: MIC.
Where [16] appears, read: Escherichia coli, 12140, po, E.coli 12140, p.o.
[17] abbreviates: Escherichia coli, 12140, sc, E.coli 12140, s.c.

≈ marks a conversion by molar mass, not a printed value. Read-outs that look alike come from different tables or passages of the source.

As to `COC(=O)COc1ccc([C@@H](N)C(=O)NC2C(=O)N3C(C(=O)O)=C(CSc4c[nH]nn4)CSC23)cc1` (stereo partly drawn) [Compound No. 19736, 7-[D-α-Amino-α-(4'-carbomethoxymethoxyphenyl)acetamido]-3-(1,2,3-triazol-4-ylthiomethyl)-3-cephem-4-carboxylic acid], the MIC in [1] is over 200 mg/L; in assay [2] it was 25 mg/L (≈ 46.8 µM); in assay [3], 12.5 mg/L (≈ 23.4 µM); in [4], over 200 mg/L; in assay [5] it was 100 mg/L (≈ 187 µM); in [6], 12.5 mg/L (≈ 23.4 µM). Also, the MIC amounted to 200 mg/L (≈ 374 µM) in [7]; 50 mg/L (≈ 93.5 µM) in [8]; 50 mg/L (≈ 93.5 µM) in assay [9]; 50 mg/L (≈ 93.5 µM) in assay [10]; 100 mg/L (≈ 187 µM) in assay [11]; 25 mg/L (≈ 46.8 µM) in assay [12] (setting [15]). The figures for the ED50 in assay [13] (setting [16]) and in assay [13] (setting [17]) were 25 mg/kg and 34 mg/kg, respectively.

As for `COC(=O)COc1ccc([C@@H](N)C(=O)NC2C(=O)N3C(C(=O)O)=C(CSc4nnnn4C)CSC23)cc1` (stereo partly drawn) [Compound No. 26436, 7-[D-α-Amino-α-(4'-carbomethoxymethoxyphenyl)acetamido]-3-(1-methyl-1,2,3,4-tetrazol-5-ylthiomethyl)-3-cephem-4-carboxylic acid], the ED50 in assay [14] (po, Klebs.pneumo. 4200, p.o.) was 5.5 mg/kg; in [14] (sc, Klebs.pneumo. 4200, s.c.), 1.5 mg/kg; in [13] (setting [16]), 9.6 mg/kg; in assay [13] (setting [17]), 1.2 mg/kg. Moreover, the MIC in [1] amounted to 50 mg/L (≈ 91 µM); in assay [2], 3.1 mg/L (≈ 5.64 µM); in [3], 6.3 mg/L (≈ 11.5 µM); in [4], 25 mg/L (≈ 45.5 µM); in assay [5], 50 mg/L (≈ 91 µM); in assay [6], 6.3 mg/L (≈ 11.5 µM). Further, the MIC in [7] was determined as 25 mg/L (≈ 45.5 µM); in assay [8] it was 12.5 mg/L (≈ 22.7 µM); in assay [9], 6.3 mg/L (≈ 11.5 µM); in assay [10] it was 6.3 mg/L (≈ 11.5 µM); in assay [11] it was 12.5 mg/L (≈ 22.7 µM); in assay [12], 6.5 mg/L (≈ 11.8 µM).

Regarding `Cn1nnnc1SCC1=C(C(=O)O)N2C(=O)C(NC(=O)[C@H](N)c3ccc(OCC(=O)O)cc3)C2SC1` (stereo partly drawn) [Compound No. 42526, 7-[D-α-Amino-α-(4'-carboxymethoxyphenyl)acetamido]-3-(1-methyl-1,2,3,4-tetrazol-5-ylthiomethyl)-3-cephem-4-carboxylic acid], the ED50 is 33 mg/kg in [14] (po, Klebs.pneumo. 4200, p.o.); 5.4 mg/kg in [14] (sc, Klebs.pneumo. 4200, s.c.); over 50 mg/kg in assay [13] (setting [16]); 9.5 mg/kg in assay [13] (setting [17]). For the same compound, the MIC is 100 mg/L (≈ 187 µM) in assay [1]; 6.3 mg/L (≈ 11.8 µM) in [2]; 25 mg/L (≈ 46.7 µM) in assay [3]; 12.5 mg/L (≈ 23.3 µM) in assay [4]; over 200 mg/L in [5]; 25 mg/L (≈ 46.7 µM) in assay [6]. Also, the MIC was 200 mg/L (≈ 373 µM) in assay [7]; 6.3 mg/L (≈ 11.8 µM) in assay [8]; 3.1 mg/L (≈ 5.79 µM) in assay [9]; 3.1 mg/L (≈ 5.79 µM) in assay [10]; 12.5 mg/L (≈ 23.3 µM) in assay [11]; 6.3 mg/L (≈ 11.8 µM) in [12] (setting [15]).

On to `Cn1nnnc1SCC1=C(C(=O)O)N2C(=O)C(NC(=O)[C@H](N)c3ccc(NCC(=O)O)cc3)C2SC1` (stereo partly drawn) [Compound No. 76746, 7-[D-α-Amino-α-(4'-carboxymethylaminophenyl)acetamido]-3-(1-methyl-1,2,3,4-tetrazol-5-ylthiomethyl)-3-cephem-4-carboxylic acid], for which the MIC in assay [1] was 6.3 mg/L (≈ 11.8 µM); in [2], 3.1 mg/L (≈ 5.8 µM); in [3], 6.3 mg/L (≈ 11.8 µM); in [4], 1.6 mg/L (≈ 2.99 µM); in [5], 100 mg/L (≈ 187 µM); in assay [6] it was 6.3 mg/L (≈ 11.8 µM). Moreover, the MIC in [7] was 50 mg/L (≈ 93.5 µM); in assay [8], 1.6 mg/L (≈ 2.99 µM); in assay [9] it was 1.6 mg/L (≈ 2.99 µM); in assay [10], 0.8 mg/L (≈ 1.5 µM); in assay [11], 1.6 mg/L (≈ 2.99 µM); in assay [12] (setting [15]), 3.1 mg/L (≈ 5.8 µM).

On to `NC(=O)COc1ccc([C@@H](N)C(=O)NC2C(=O)N3C(C(=O)O)=C(CSc4c[nH]nn4)CSC23)cc1` (stereo partly drawn) [Compound No. 91726, 7-[D-α-Amino-α -(4'-carbamylmethoxyphenyl)acetamido]-3-(1,2,3-triazol-4-ylthiomethyl)-3-cephem-4-carboxylic acid], for which the ED50 stood at 13.6 mg/kg in assay [14] (po, Klebs.pneumo. 4200, p.o.); 12.5 mg/kg in assay [14] (sc, Klebs.pneumo. 4200, s.c.); 25 mg/kg in assay [13] (setting [16]); 14 mg/kg in assay [13] (setting [17]). Moreover, the MIC in [2] was determined as 6.3 mg/L (≈ 12.1 µM); in assay [3], 6.3 mg/L (≈ 12.1 µM); in [4], 50 mg/L (≈ 96.2 µM); in assay [5] it was 200 mg/L (≈ 385 µM); in [6], 6.3 mg/L (≈ 12.1 µM); in assay [7], 50 mg/L (≈ 96.2 µM). The minimal inhibitory concentration (MIC) amounted to 50 mg/L (≈ 96.2 µM) in assay [8]; 12.5 mg/L (≈ 24.1 µM) in assay [9]; 12.5 mg/L (≈ 24.1 µM) in assay [10]; 25 mg/L (≈ 48.1 µM) in [11]; 6.3 mg/L (≈ 12.1 µM) in assay [12] (setting [15]).

On to `COC(=O)CNc1ccc([C@@H](N)C(=O)NC2C(=O)N3C(C(=O)O)=C(CSc4nnc(C)s4)CSC23)cc1` (stereo partly drawn) [Compound No. 96146, 7-[D-α-Amino-α-(4'-carbomethoxymethylaminophenyl)-acetamido]-3-(5-methyl-1,3,4-thiadiazol-2-ylthiomethyl)-3-cephem-4-carboxylic acid], for which the ED50 in assay [14] (po, Klebs.pneumo. 4200, p.o.) worked out at 17 mg/kg; in assay [14] (sc, Klebs.pneumo. 4200, s.c.), 2.9 mg/kg; in [13] (setting [16]) it was 16 mg/kg; in assay [13] (setting [17]), 4.7 mg/kg. For the same compound, the MIC was over 200 mg/L in assay [1]; 25 mg/L (≈ 44.3 µM) in [2]; 6.3 mg/L (≈ 11.2 µM) in assay [3]; 100 mg/L (≈ 177 µM) in assay [4]; 25 mg/L (≈ 44.3 µM) in assay [5]; 6.3 mg/L (≈ 11.2 µM) in assay [6]. In addition, the MIC in assay [7] worked out at 50 mg/L (≈ 88.5 µM); in [8], 50 mg/L (≈ 88.5 µM); in [9], 50 mg/L (≈ 88.5 µM); in [10], 50 mg/L (≈ 88.5 µM); in assay [11], 100 mg/L (≈ 177 µM); in assay [12] (setting [15]), 25 mg/L (≈ 44.3 µM).

By MIC is commonly meant the smallest concentration in the dilution series that meets the test's criterion for growth inhibition. Broadly, the ED50 is the midpoint of the dose-response relation.
